Assay results published in US9968614B2, “Aprepitant injectable formulations” (InnoPharma, Inc., priority 2012, dated 2018).
Like-named read-outs stand apart in the source and are kept apart here.

Tests used:
[1] = Solubility of aprepitant in ethanol with the balance water; type: physicochemical
Description: Thus, while the above approaches using complexing agents and/or co-solvents led to a soluble form of aprepitant in at least some instances, concentration of aprepitant is relatively low, and aprepitant tends to precipitate out upon further dilution. As is already known in the art, solubility of aprepitant increases exponentially with increasing concentration of ethanol as shown in Table 1 in the background section. Moreover, maximum allowed concentrations of ethanol in a drug formulation are typically at or below 49 volume %. […] Moreover, and as already noted above, an ethanol/water solvent system is not suitable for injection as aprepitant will rapidly precipitate upon dilution at the injection site.

[2] = Solubility of aprepitant in water or ethanol/water with polysorbate 80; type: physicochemical
Description: The inventors further tested whether co-solvents (i.e., solvents in addition to water) in combination with surfactants would improve solubility of aprepitant. […] In most preferred aspects, a relatively low concentration of nonionic surfactant was chosen in a co-solvent mixture of ethanol and water, and Tables 3-5 below exemplarily illustrate the results of such combination.
More specifically, Table 3 depicts solubility results of aprepitant in water without ethanol at surfactant concentrations noted in the table.
Likewise, Table 4 depicts solubility results of aprepitant in an ethanol/water mixture of (30 vol % EtOH, 70 vol % H2O) at surfactant concentrations noted in the table, and Table 5 depicts solubility results of aprepitant in an ethanol/water mixture of (55 volume % EtOH, 45 vol % H2O) at surfactant concentrations noted in the table.

[3] = Solubilization of aprepitant by pH (pKa, pH-dependent solubility); type: physicochemical
Method: Indeed, to be soluble in aqueous solution, a pH of greater than 11.7 is required. However, a formulation with such a high pH is not suitable for injection. Moreover, the instant such a formulation is diluted in blood, the pH will change to about pH 7.4, which will lead to rapid precipitation of the drug. […] Similar problems were also encountered where aprepitant is dissolved in a water/ethanol solvent mixture where ethanol is at about 50 volume 9 concentration. Here, dilution that would occur at the injection site would lead to precipitation of the drug and so might lead to chemo-embolism.

[4] = Solubility of aprepitant in polysorbate 80 solutions after pre-solubilisation in DMAC; type: physicochemical
Method: The inventors also tested whether solubility of aprepitant in aqueous polysorbate 80 solutions could be improved when aprepitant was pre-solubilized in a secondary solvent (e.g., dimethylacetamide (DMAC)). […] Remarkably, when the inventors directly added 200 μL of DMAC solubilized in 10 mL of water to 100 mg aprepitant (i.e., without surfactant), aprepitant was not detected in the solution phase.

[5] = cited from earlier work
[6] = given orally, nanoparticulate composition; cited from earlier work
[7] = Solubility of aprepitant in aqueous surfactant solutions; type: physicochemical; settings: water alone as solvent
Description: However, in a typical injectable formulation at Polysorbate 80 concentration of 10% w/v, it would require 7 grams of surfactant, and at Polysorbate 80 concentration of 30% w/v, it would require 9 grams of surfactant to solubilize the aprepitant. Unfortunately, such high quantities of surfactant are entirely unsuitable for injectable formulations (e.g., due to hypersensitivity issues related to polysorbate, foam formation during mixing, etc.). Table 2 below illustrates typical solubility data for aprepitant using water alone as solvent.

[8] = cited from earlier work; remark: listed apart in the source
[9] = prevention and control of acute and delayed chemotherapy induced nausea and vomiting; cited from earlier work
[10] = IV infusion; cited from earlier work

Compound: C[C@@H](O[C@H]1OCCN(Cc2nc(=O)[nH][nH]2)[C@H]1c1ccc(F)cc1)c1cc(C(F)(F)F)cc(C(F)(F)F)c1 [Aprepitant, 5-([(2R,3S)-2((R)-1-[3,5-bis(trifluoromethyl)phenyl]ethoxy)-3-(4-fluoro-phenyl)morpholino]methyl)-1H-1,2,4-triazol-3(2H)-one]
- Aprepitant Conc. ([1]; Ethanol Conc. (v/v) 10, balance water): 0.0001 mg/mL
- Aprepitant Conc. ([1]; Ethanol Conc. (v/v) 30, balance water): 0.0232 mg/mL
- Aprepitant Conc. ([1]; Ethanol Conc. (v/v) 50, balance water): 1.76 mg/mL
- Aprepitant Conc. ([1]; Ethanol Conc. (v/v) 55, balance water): 3.30 mg/mL
- Aprepitant Conc. ([1]; Ethanol Conc. (v/v) 60, balance water): 5.1 mg/mL
- Aprepitant Conc. ([1]; Ethanol Conc. (v/v) 70, balance water): 12.8 mg/mL
- Aprepitant Conc. ([1]; Ethanol Conc. (v/v) 90, balance water): 21.8 mg/mL
- Aprepitant Conc. ([2]; 30 vol % EtOH, 70 vol % H2O, Polysorbate 80 11 mg/mL): 0.560 mg/mL
- Aprepitant Conc. ([2]; 30 vol % EtOH, 70 vol % H2O, Polysorbate 80 44 mg/mL): 0.793 mg/mL
- Aprepitant Conc. ([2]; 30 vol % EtOH, 70 vol % H2O, no Polysorbate 80): 0.0232 mg/mL
- Aprepitant Conc. ([2]; 55 volume % EtOH, 45 vol % H2O, Polysorbate 80 11 mg/mL): 1.936 mg/mL
- Aprepitant Conc. ([2]; 55 volume % EtOH, 45 vol % H2O, Polysorbate 80 22 mg/mL): 3.309 mg/mL
- Aprepitant Conc. ([2]; 55 volume % EtOH, 45 vol % H2O, Polysorbate 80 44 mg/mL): 4.182 mg/mL
- Aprepitant Conc. ([2]; 55 volume % EtOH, 45 vol % H2O, no Polysorbate 80): 3.3 mg/mL
- Aprepitant Conc. ([2]; water without ethanol, Polysorbate 80 11 mg/mL): 0.179 mg/mL
- Aprepitant Conc. ([2]; water without ethanol, Polysorbate 80 22 mg/mL): 0.308 mg/mL
- Aprepitant Conc. ([2]; water without ethanol, Polysorbate 80 44 mg/mL): 0.505 mg/mL
- pH required to be soluble in aqueous solution ([3]; aqueous solution): greater than 11.7
- solubility in concentrated formic acid ([3]; concentrated formic acid): soluble
- behaviour on dilution of formic acid solution ([3]; twofold dilution with aqueous medium): precipitated almost immediately
- aprepitant in the solution phase ([4]; 200 μL DMAC in 10 mL water added directly to 100 mg aprepitant, without surfactant): not detected
- Aprepitant Conc. ([4]; Directly Added, Polysorbate 80 10 % w/v): 1.85 mg/mL
- Aprepitant Conc. ([4]; Directly Added, Polysorbate 80 30 % w/v): 4.42 mg/mL
- Aprepitant Conc. ([4]; Prior Solubilization in DMAC, Polysorbate 80 5 % w/v): 0.85 mg/mL
- Aprepitant Conc. ([4]; Prior Solubilization in DMAC, Polysorbate 80 10 % w/v): 2.03 mg/mL
- Aprepitant Conc. ([4]; Prior Solubilization in DMAC, Polysorbate 80 15 % w/v): 3.13 mg/mL
- Aprepitant Conc. ([4]; Prior Solubilization in DMAC, Polysorbate 80 20 % w/v): 4.35 mg/mL
- Aprepitant Conc. ([4]; Prior Solubilization in DMAC, Polysorbate 80 30 % w/v): 4.80 mg/mL
- solubility (descriptive) ([5]; acetonitrile): slightly soluble
- solubility (descriptive) ([5]; ethanol): sparingly soluble
- solubility (descriptive) ([5]; isopropyl acetate): sparingly soluble
- solubility (descriptive) ([5]; oil (as is well established)): substantially insoluble
- solubility (descriptive) ([5]; water (as is well established)): substantially insoluble
- solubility (descriptive) ([5]; water): practically insoluble
- bioavailability [6]: 60-65%
- Aprepitant Conc. ([7]; Cremophor RH 40 10 % w/v): 1.24 mg/mL
- Aprepitant Conc. ([7]; Cremophor RH 40 30 % w/v): 3.51 mg/mL
- Aprepitant Conc. ([7]; Cremophor RH 60 10 % w/v): 1.24 mg/mL
- Aprepitant Conc. ([7]; Poloxamer 188 30 % w/v): 1.24 mg/mL
- Aprepitant Conc. ([7]; Polysorbate 80 10 % w/v): 1.85 mg/mL
- Aprepitant Conc. ([7]; Polysorbate 80 30 % w/v): 4.42 mg/mL
- pka [8]: 9.7

Compound: C[C@@H](O[C@H]1OCCN(Cc2nc(O)n(P(=O)(O)O)n2)[C@H]1c1ccc(F)cc1)c1cc(C(F)(F)F)cc(C(F)(F)F)c1 [Fosaprepitant]
- comparison to aprepitant [9]: non-inferiority and bioequivalency
- time for conversion to aprepitant [10]: less than 30 minutes
